According to patent US10138260B2, “Compounds of phosphinanes and azaphosphinanes, a process for their preparation and pharmaceutical compositions containing them” (LES LABORATOIRES SERVIER, priority 2016, dated 2018):
Structures can show the parent of a compound that is named as a salt.

Target: T1, TAFIa (Homo sapiens, UniProt Q96IY4)
T1 sequence (Q96IY4 115-423): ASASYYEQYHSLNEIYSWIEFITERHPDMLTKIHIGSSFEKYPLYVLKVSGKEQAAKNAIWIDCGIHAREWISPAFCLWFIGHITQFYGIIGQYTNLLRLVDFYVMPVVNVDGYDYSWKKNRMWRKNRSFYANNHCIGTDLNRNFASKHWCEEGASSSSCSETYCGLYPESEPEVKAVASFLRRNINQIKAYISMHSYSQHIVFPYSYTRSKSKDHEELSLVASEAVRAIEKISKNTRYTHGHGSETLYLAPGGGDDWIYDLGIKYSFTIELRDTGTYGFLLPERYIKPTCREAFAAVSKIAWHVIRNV
Assay: Inhibition of TAFIa (hippuryl-Arg test)
Format: biochemical
Conditions: TAFIa 2 nM, hippuryl-arginine 5 mM, 45 minutes, relative to control containing the carrier; for inhibition at 0.01 µM: compound at 10 nM; for inhibition at 0.02 µM: compound at 20 nM
Method in brief: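 TAFI (4 nM) activated 20 min by thrombin/thrombomodulin with 10 mM calcium, stopped with PPACK; TAFIa (2 nM) then incubated 45 min with compound and 5 mM hippuryl-arginine in Hepes buffer, pH 7.4, 28 °C. Absorbance at 405 nm, blank-corrected; % inhibition versus carrier at 10 and 20 nM.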

Row | Structure (SMILES) | inhibition at 0.01 µM [%] | inhibition at 0.02 µM [%]
1 | COc1ccc(-c2cc(O)ccc2CN2CCP(=O)(O)[C@](CCCCN)(C(=O)O)C2)cc1OC [Example 229, (3S)-3-(4-AMINOBUTYL)-1-[[2-(3,4-DIMETHOXYPHENYL)-4-HYDROXYPHENYL]-METHYL]-4-HYDROXY-4-OXO-1,4-AZAPHOSPHINANE-3-CARBOXYLIC ACID] | 81 | 89
2 | Cn1nc(C(F)(F)F)cc1-c1ccccc1CN1CCP(=O)(O)[C@](CCCCN)(C(=O)O)C1 [Example 232, (3S)-3-(4-AMINOBUTYL)-4-HYDROXY-1-[[2-[2-METHYL-5-(TRIFLUOROMETHYL)-PYRAZOL-3-YL]PHENYL]METHYL]-4-OXO-1,4-AZAPHOSPHINANE-3-CARBOXYLIC ACID] | 80 | 89
3 | NCCCC[C@@]1(C(=O)O)CN(Cc2ccc(F)cc2-c2cncnc2)CCP1(=O)O [Example 234, (3S)-3-(4-AMINOBUTYL)-1-[(4-FLUORO-2-PYRIMIDIN-5-YLPHENYL)METHYL]-4-HYDROXY-4-OXO-1,4-AZAPHOSPHINANE-3-CARBOXYLIC ACID] | 68 | 79
4 | Cn1nccc1-c1ccccc1CN1CCP(=O)(O)[C@](CCCCN)(C(=O)O)C1 [Example 235, (3S)-3-(4-AMINOBUTYL)-4-HYDROXY-1-[[2-(2-METHYLPYRAZOL-3-YL)PHENYL]METHYL]-4-OXO-1,4-AZAPHOSPHINANE-3-CARBOXYLIC ACID] | 60 | 77
5 | Cn1nccc1-c1cc(F)ccc1CN1CCP(=O)(O)[C@](CCCCN)(C(=O)O)C1 [Example 236, (3S)-3-(4-AMINOBUTYL)-1-[[4-FLUORO-2-(2-METHYLPYRAZOL-3-YL)PHENYL]-METHYL]-4-HYDROXY-4-OXO-1,4-AZAPHOSPHINANE-3-CARBOXYLIC ACID] | 81 | 91
6 | NCCCC[C@@]1(C(=O)O)CN(Cc2ccccc2-c2cnc3ccccn23)CCP1(=O)O [Example 237, (3S)-3-(4-AMINOBUTYL)-4-HYDROXY-1-[(2-IMIDAZO[1,2-A]PYRIDIN-3-YLPHENYL)METHYL]-4-OXO-1,4-AZAPHOSPHINANE-3-CARBOXYLIC ACID] | 77 | 84
7 | NCCCC[C@@]1(C(=O)O)CN(Cc2ccc(F)cc2-c2cccc(O)c2)CCP1(=O)O [Example 238, (3S)-3-(4-AMINOBUTYL)-1-[[4-FLUORO-2-(3-HYDROXYPHENYL)PHENYL]-METHYL]-4-HYDROXY-4-OXO-1,4-AZAPHOSPHINANE-3-CARBOXYLIC ACID] | 70 | 87
8 | COc1ccc(-c2cc(F)ccc2CN2CCP(=O)(O)[C@](CCCCN)(C(=O)O)C2)cn1 [Example 239, (3S)-3-(4-AMINOBUTYL)-1-[[4-FLUORO-2-(6-METHOXYPYRIDIN-3-YL)PHENYL]-METHYL]-4-HYDROXY-4-OXO-1,4-AZAPHOSPHINANE-3-CARBOXYLIC ACID] | 85 | 96
9 | NCCCC[C@@]1(C(=O)O)CN(Cc2ccccc2-c2ccc(O)nc2)CCP1(=O)O [Example 240, (3S)-3-(4-AMINOBUTYL)-4-HYDROXY-1-[[2-(6-HYDROXYPYRIDIN-3-YL)PHENYL]METHYL]-4-OXO-1,4-AZAPHOSPHINANE-3-CARBOXYLIC ACID] | 66 | 80
10 | NCCCC[C@@]1(C(=O)O)CN(Cc2ccc(F)cc2-c2ccc(O)nc2)CCP1(=O)O [Example 241, (3S)-3-(4-AMINOBUTYL)-1-[[4-FLUORO-2-(6-HYDROXYPYRIDIN-3-YL)PHENYL]-METHYL]-4-HYDROXY-4-OXO-1,4-AZAPHOSPHINANE-3-CARBOXYLIC ACID] | 77 | 91
11 | COc1ccc(-c2cc(O)ccc2CN2CCP(=O)(O)[C@](CCCCN)(C(=O)O)C2)cn1 [Example 242, (3S)-3-(4-AMINOBUTYL)-4-HYDROXY-1-[[4-HYDROXY-2-(6-METHOXYPYRIDIN-3-YL)PHENYL]METHYL]-4-OXO-1,4-AZAPHOSPHINANE-3-CARBOXYLIC ACID] | 75 | 88

The next lines start with the values.

Row | inhibition at 0.01 µM [%] | inhibition at 0.02 µM [%] | Structure (SMILES)
12 | 49 | 68 | COc1cccc(-c2cc(F)ccc2CN2CCP(=O)(O)[C@](CCCCN)(C(=O)O)C2)n1 [Example 244, (3S)-3-(4-AMINOBUTYL)-1-[[4-FLUORO-2-(6-METHOXYPYRIDIN-2-YL)PHENYL]-METHYL]-4-HYDROXY-4-OXO-1,4-AZAPHOSPHINANE-3-CARBOXYLIC ACID]
13 | 38 | 52 | NCCCC[C@@]1(C(=O)O)CN(Cc2ccc(F)cc2-c2nccs2)CCP1(=O)O [Example 245, (3S)-3-(4-AMINOBUTYL)-1-[[4-FLUORO-2-(1,3-THIAZOL-2-YL)PHENYL]METHYL]-4-HYDROXY-4-OXO-1,4-AZAPHOSPHINANE-3-CARBOXYLIC ACID]
14 | 72 | 86 | Cn1cncc1-c1cc(O)ccc1CN1CCP(=O)(O)[C@](CCCCN)(C(=O)O)C1 [Example 246, (3S)-3-(4-Aminobutyl)-4-hydroxy-1-[[4-hydroxy-2-(3-methylimidazol-4-yl)phenyl]methyl]-4-oxo-1,4-azaphosphinane-3-carboxylic acid, hydrobromide]
15 | 85 | 89 | Cn1nccc1-c1cc(O)ccc1CN1CCP(=O)(O)[C@](CCCCN)(C(=O)O)C1 [Example 247, (3S)-3-(4-AMINOBUTYL)-4-HYDROXY-1-[[4-HYDROXY-2-(2-METHYLPYRAZOL-3-YL)PHENYL]METHYL]-4-OXO-1,4-AZAPHOSPHINANE-3-CARBOXYLIC ACID]
16 | 87 | 95 | COc1ccc(-c2ccccc2CN2CCP(=O)(O)[C@](CCCCN)(C(=O)O)C2)cc1OC [Example 248, (3S)-3-(4-AMINOBUTYL)-1-[[2-(3,4-DIMETHOXYPHENYL)PHENYL]METHYL]-4-HYDROXY-4-OXO-1,4-AZAPHOSPHINANE-3-CARBOXYLIC ACID]
17 | 88 | 94 | Cc1ncc(-c2cc(O)ccc2CN2CCP(=O)(O)[C@](CCCCN)(C(=O)O)C2)n1C [Example 249, (3S)-3-(4-AMINOBUTYL)-1-[[2-(2,3-DIMETHYLIMIDAZOL-4-YL)-4-HYDROXYPHENYL]METHYL]-4-HYDROXY-4-OXO-1,4-AZAPHOSPHINANE-3-CARBOXYLIC ACID]
18 | 88 | 97 | Cc1ncc(-c2ccccc2CN2CCP(=O)(O)[C@](CCCCN)(C(=O)O)C2)n1C [Example 250, (3S)-3-(4-AMINOBUTYL)-1-[[2-(2,3-DIMETHYLIMIDAZOL-4-YL)PHENYL]-METHYL]-4-HYDROXY-4-OXO-1,4-AZAPHOSPHINANE-3-CARBOXYLIC ACID]
19 | 70 | 90 | NCCCC[C@@]1(C(=O)O)CN(Cc2ccc(F)cc2-c2ccc(F)c(O)c2)CCP1(=O)O [Example 251, (3S)-3-(4-AMINOBUTYL)-1-[[4-FLUORO-2-(4-FLUORO-3-HYDROXYPHENYL)-PHENYL]METHYL]-4-HYDROXY-4-OXO-1,4-AZAPHOSPHINANE-3-CARBOXYLIC ACID]
20 | 76 | 90 | NCCCC[C@@]1(C(=O)O)CN(Cc2ccccc2-c2ccncc2)CCP1(=O)O [Example 252, (3S)-3-(4-AMINOBUTYL)-4-HYDROXY-4-OXO-1-[(2-PYRIDIN-4-YLPHENYL)-METHYL]-1,4-AZAPHOSPHINANE-3-CARBOXYLIC ACID]
